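How tested: cells in 96-well plates exposed to compound for 48 hours at five concentrations. TGI: concentration producing complete growth inhibition.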
Columns and labels:
Test in all cases: NCI anticancer screen, dose series, 48 h
[1] = system: SR leukemia
[2] = system: DU-145 prostate
[3] = system: TK-10 renal
[4] = system: MOLT-4 leukemia
[5] = system: SW-620 colon
[6] = system: SNB-75 CNS
[7] = system: HCT-15 colon
[8] = system: CCRF-CEM leukemia
[9] = system: UACC-62 melanoma
[10] = system: NCI/ADR-RES ovarian
[11] = system: ACHN renal
[12] = system: K-562 leukemia
[13] = system: OVCAR-5 ovarian
[14] = system: SN12C renal
[15] = system: OVCAR-4 ovarian
[16] = system: A498 renal
[17] = system: HT29 colon

With `CCCc1cn2c(/C=N/N=C(N)N)c(-c3cc([N+](=O)[O-])c(Cl)cc3Cl)nc2s1` the TGI [1] was 2920 nM, the TGI [2] was 3.53 µM and the TGI [3] was 2330 nM. For the same compound, the TGI [4] was 873 nM, the TGI [5] was 2970 nM and the TGI [6] was 3.07 µM. It also gave a TGI [7] of 3.02 µM, a TGI [8] of 860 nM and a TGI [9] of 3.15 µM. The TGI [10] was 4.31 µM, the TGI [11] was 3.16 µM and the TGI [12] was 2490 nM. For the same compound, the TGI [13] was 3.12 µM, the TGI [14] was 3.16 µM and the TGI [15] was 2830 nM. It also gave a TGI [16] of 2880 nM and a TGI [17] of 2460 nM.

Reference: PubChem BioAssay (NCI)
